{
  "source": "patent US20160354326A1",
  "about": "“LOCAL ANESTHETIC SOLUTION FOR DENTAL AND/OR CONTRAST MEDIA USE” (priority 2014, published 2016)",
  "origin": "cited, not measured here",
  "data": [
    {"conditions": "dissolved in solution; sucrose standard = 1", "values": [
      {"smiles": "OC[C@@H](O)[C@@H](O)[C@H](O)[C@@H](O)CO", "note": "[Sorbitol]", "sweetness perception rating (times the sweetness of sucrose in solution)": 0.6},
      {"smiles": "O=C(CO)[C@@H](O)[C@H](O)[C@H](O)CO", "note": "[fructose]", "sweetness perception rating (times the sweetness of sucrose in solution)": 1.7},
      {"smiles": "OC[C@H]1O[C@@](CO)(O[C@H]2O[C@H](CO)[C@@H](O)[C@H](O)[C@H]2O)[C@@H](O)[C@@H]1O", "note": "[Sucrose]", "sweetness perception rating (times the sweetness of sucrose in solution)": 1}
    ]}
  ]
}
